US20240342179A1, “TREATMENT OF CANCERS OR NEOPLASMS BY INHIBITING KIF15” (University of Kansas, priority 2023, published 2024)

Key:
GST-KIF15 1149-1388 = GST-KIF15 1149-1388 (Homo sapiens (Human), UniProt Q9NS87); test: NMR (STD-NMR / WaterLOGSY) versus GST-KIF15; assay type: binding; details: for NMR Versus GST-KIF15: Hit / No; for WaterLOGSY binding to GST-KIF15: 1:150 GST-KIF15 1149-1388
Description: (§1) WaterLOGSY NMR Spectra of Compounds A1 and B2 are provided.
Various cocktails of compounds were prepared to test for interactions. 100 μL DMSO-d6 was added to 3 mg of material. 26 cocktails of 6 compounds were prepared and 3 cocktails of 7 compounds were prepared. Then, 3 μM protein is added to 300 μM of the cocktails in 10% D2O buffer. Concentration of compounds is 10 mM each.
(§2) The 166 compound hit samples were further characterized for KIF15 or TPX2 binding using biophysical saturation transfer difference nuclear magnetic resonance (STD-NMR) and WaterLOGSY assays. The 166 compound samples were screened by STD-NMR for evidence of binding to GST-KIF15 or His-TPX2. In our assessment, no hits bound to His-TPX2. The protocol counter-screened potential hits against a His-GST peptide^99 and for aggregation using protein-free controls. Ultimately, three compound hits representing two compound chemotypes were validated to bind KIF15 by WaterLOGSY (FIGS. 4A-4B).

[1] = molecular target: KIF15/TPX2 protein-protein interaction (GST-KIF15 amino acids 1149-1388, His-TPX2 amino acids 346-747) (Homo sapiens (Human), UniProt Q9NS87); test: KIF15/TPX2 AlphaScreen assay; assay type: binding
Description: The protocol designed peptides corresponding to the appropriate domains of KIF15 (amino acids 1149-1388, GST-tagged) and TPX2 (amino acids 346-747, His-tagged), for use in the AlphaScreen assay.
Next, the protocol screened a total of 191,852 compounds from the KU-HTS library. Analysis identified 584 hits that inhibited the primary AlphaScreen TPX2-KIF15 interaction to greater than three standard deviations plus the plate inhibition-median. The 584 hits were tested for assay interference in the AlphaScreen counter-screen using His-GST fusion protein. […] Of the 467 hits, 399 inhibited the TPX2-KIF15 interaction in a dose-response manner. Refinement was conducted until identifying the compounds provided herein.
To identify compounds that inhibit KIF15-mediated bipolar spindle formation, a process that is dependent on KIF15 binding to TPX2, the protocol designed a high-throughput screen using AlphaScreen Technology. Previous studies predicted that KIF15-TPX2 binding is mediated through a C-terminal coiled-coil domain on KIF15 (amino acids 1149-1388; amino acids 1359-1380) that binds the C-terminal region of TPX2 (amino acids 475-715; amino acids 680-747)^50, 52, 57, 58. Based on these observations, the protocol designed peptides corresponding to the appropriate domains of TPX2 (amino acids 346-747, His-tagged), and KIF15 (amino acids 1149-1388, GST-tagged) for use in the AlphaScreen assay.
Next, the protocol screened a total of 191,852 compounds from the KU-HTS small-molecule compound collection. The protocol identified 584 hits that inhibited the primary AlphaScreen TPX2-KIF15 interaction to greater than three standard deviations plus the plate inhibition-median. The 584 hits were tested for assay interference in the AlphaScreen assay counter-screen using His-GST fusion protein eliminating 117 compounds^99. […] Of the 467 hits, 399 inhibited the KIF15-TPX2 interaction in a concentration-dependent manner (FIGS. 3A-3D), rendering them candidates for follow-on validation in orthogonal and counter-screen assays. Informed by computational and medicinal chemistry assessment^100, the protocol selected a representative subset of approximately 200 of the 399 compound hits for additional characterization. Samples for 177 compounds from the subset of approximately 200 representative compounds were available for purchase. Samples of these 177 compounds were purchased for structure verification by NMR and further characterization. There was enough compound sample procured to complete follow-on screening for 166 of the 177 compounds.

His-TPX2 346-747 = His-TPX2 346-747 (Homo sapiens (Human), UniProt Q9ULW0); test: NMR (STD-NMR / WaterLOGSY) versus His-TPX2; assay type: binding; details: 1:150 His-TPX2 346-747
Source text: as §1, §2

[2] = tested on: EOC cell lines (A2780, OVCAR5, and SKOV3); test: Synergy with ispinesib in cell viability (Bliss score); assay type: cell-based; details: combination with ispinesib
Source text: The protocol tested all 166 samples of compound hits for complete screening for synergism in KIF11-inhibited cells EOC cell lines (A2780, OVCAR5, and SKOV3) (FIGS. 5A-5C).
Bliss score analyzes the statistical independence of the two treatments. A positive score indicates synergism, a negative score indicates antagonism and a score of zero indicates a purely additive effect of the combination therapy.

KIF15-HiBiT = KIF15-HiBiT (Homo sapiens (Human), UniProt Q9NS87); test: Cellular thermal shift assay (CETSA), HiBiT split luciferase; assay type: cell-based; details: 100 μM
Description: To verify that the three putative binders of KIF15 identified by NMR spectroscopy against KIF15 fragments, a cellular thermal shift assay was performed. All three compounds at 100 μM stabilized KIF15 when thermally challenged to a greater extent than the TPX2 mimetic peptide used as a positive control (Δ5.7° C. for compound A1, Δ5.3° C. for compound A2, and Δ9.6° C. for compound B1, Δ2.1° C. for TPX2 mimetic peptide).
The HiBiT Split Luciferase based protein detection method utilized for screening of candidate compounds for physical binding to KIF15. […] The increase in stability of the protein indicates ligand engagement by stabilizing the protein in a natured conformation.
These three compound hits, referred to as Compounds A1, A2 and B1 (FIG. 3A) were screened for target engagement in CETSA. In short, a split luciferase tag known as HiBiT (Promega, Madison, WI) was fused to the KIF15 protein in a transient expression vector. Soluble protein can be easily quantified by adding the LgBiT subunit of nano luciferase. A stabilizing shift in the melting temperature of the protein indicates the protein is being stabilized by the engaged small molecule indicating direct binding of the small molecule to its target.

Chain of KIF15/TPX2 protein-protein interaction (GST-KIF15 amino acids 1149-1388, His-TPX2 amino acids 346-747) (Q9NS87 1149-1388): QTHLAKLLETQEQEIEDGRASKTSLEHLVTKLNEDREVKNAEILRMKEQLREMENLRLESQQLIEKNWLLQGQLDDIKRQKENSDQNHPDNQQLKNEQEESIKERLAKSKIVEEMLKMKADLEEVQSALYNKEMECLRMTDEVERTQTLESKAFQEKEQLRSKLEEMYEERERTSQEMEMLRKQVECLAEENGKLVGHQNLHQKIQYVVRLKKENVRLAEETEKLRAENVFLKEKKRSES
Chain of GST-KIF15 1149-1388 (Q9NS87 1149-1388): as above
Chain of His-TPX2 346-747 (Q9ULW0 346-747): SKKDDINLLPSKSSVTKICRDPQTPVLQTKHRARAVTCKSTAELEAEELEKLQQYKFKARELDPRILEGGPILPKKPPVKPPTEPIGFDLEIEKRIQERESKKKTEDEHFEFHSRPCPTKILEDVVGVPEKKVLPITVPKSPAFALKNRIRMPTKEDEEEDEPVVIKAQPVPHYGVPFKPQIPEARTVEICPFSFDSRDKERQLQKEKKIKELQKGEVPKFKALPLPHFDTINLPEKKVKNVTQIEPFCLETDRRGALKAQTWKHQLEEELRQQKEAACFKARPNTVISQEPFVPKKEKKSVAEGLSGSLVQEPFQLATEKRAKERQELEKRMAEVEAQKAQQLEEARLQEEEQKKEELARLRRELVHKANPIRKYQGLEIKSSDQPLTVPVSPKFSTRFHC
Chain of KIF15-HiBiT (Q9NS87 whole entry, the tested form may be a part): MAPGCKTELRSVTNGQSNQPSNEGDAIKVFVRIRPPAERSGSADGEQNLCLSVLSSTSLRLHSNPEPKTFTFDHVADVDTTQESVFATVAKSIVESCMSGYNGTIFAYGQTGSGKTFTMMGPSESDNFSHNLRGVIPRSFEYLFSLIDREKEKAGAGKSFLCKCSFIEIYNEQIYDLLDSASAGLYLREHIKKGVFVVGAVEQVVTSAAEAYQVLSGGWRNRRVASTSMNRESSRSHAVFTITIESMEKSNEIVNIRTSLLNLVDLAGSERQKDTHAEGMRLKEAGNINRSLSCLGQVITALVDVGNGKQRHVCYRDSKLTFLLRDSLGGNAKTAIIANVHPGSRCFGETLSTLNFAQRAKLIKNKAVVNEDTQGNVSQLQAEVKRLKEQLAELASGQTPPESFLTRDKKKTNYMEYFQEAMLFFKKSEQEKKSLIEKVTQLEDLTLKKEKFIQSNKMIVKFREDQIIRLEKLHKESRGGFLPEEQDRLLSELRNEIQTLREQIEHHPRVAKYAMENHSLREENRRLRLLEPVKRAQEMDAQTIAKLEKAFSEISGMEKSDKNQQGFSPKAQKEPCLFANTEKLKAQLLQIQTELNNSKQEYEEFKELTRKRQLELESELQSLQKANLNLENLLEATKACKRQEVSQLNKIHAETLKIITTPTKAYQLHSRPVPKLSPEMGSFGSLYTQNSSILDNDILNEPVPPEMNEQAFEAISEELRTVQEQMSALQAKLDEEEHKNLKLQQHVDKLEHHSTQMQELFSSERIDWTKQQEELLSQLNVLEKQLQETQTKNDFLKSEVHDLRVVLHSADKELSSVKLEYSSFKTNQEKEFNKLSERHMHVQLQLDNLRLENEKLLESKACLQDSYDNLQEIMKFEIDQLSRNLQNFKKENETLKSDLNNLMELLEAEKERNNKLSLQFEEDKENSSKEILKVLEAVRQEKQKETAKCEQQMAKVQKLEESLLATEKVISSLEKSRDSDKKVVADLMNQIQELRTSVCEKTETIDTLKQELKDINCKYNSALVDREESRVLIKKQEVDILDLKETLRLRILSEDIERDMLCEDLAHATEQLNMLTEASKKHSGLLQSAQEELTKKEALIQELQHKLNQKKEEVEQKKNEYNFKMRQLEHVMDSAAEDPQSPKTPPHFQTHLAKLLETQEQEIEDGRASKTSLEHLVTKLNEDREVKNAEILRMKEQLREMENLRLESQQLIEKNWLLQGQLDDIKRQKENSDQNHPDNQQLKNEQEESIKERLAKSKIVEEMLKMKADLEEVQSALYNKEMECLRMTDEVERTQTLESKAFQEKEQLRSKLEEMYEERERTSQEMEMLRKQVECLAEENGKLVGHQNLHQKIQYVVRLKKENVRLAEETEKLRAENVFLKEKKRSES

SMILES	IC50 (TruHits counter-screen)	NMR Versus GST-KIF15 (GST-KIF15 1149-1388)	IC50 [1]	WaterLOGSY / STD-NMR binding to His-TPX2 (His-TPX2 346-747)	WaterLOGSY binding to GST-KIF15 (GST-KIF15 1149-1388)	synergy with ispinesib in inhibition of growth [2]	shift in thermostability of KIF15 (KIF15-HiBiT)
CCCN1CCN(c2ncc3c(n2)CCN(Cc2ccc(CC)cc2)C3)CC1 [Compound 1, 6-(4-ethylbenzyl)-2-(4-propylpiperazin-1-yl)-5,6,7,8-tetrahydropyrido[4,3-d]pyrimidine]	393 ± 13 µM	No	32.2 ± 4.6 µM	–	–	–	–
CCCN1CCN(c2ncc3c(n2)CCN(Cc2cccc(F)c2F)C3)CC1 [Compound 2, 6-(2,3-difluorobenzyl)-2-(4-propylpiperazin-1-yl)-5,6,7,8-tetrahydropyrido[4,3-d]pyrimidine]	428 ± 38 µM	No	27.8 ± 4.7 µM	–	–	–	–
CCCN1CCN(c2ncc3c(n2)CCN(Cc2ccc(OCC)c(OCC)c2)C3)CC1 [Compound 3, 6-(3,4-diethoxybenzyl)-2-(4-propylpiperazin-1-yl)-5,6,7,8-tetrahydropyrido[4,3-d]pyrimidine]	510 ± 6 µM	No	42.2 ± 3.3 µM	–	–	–	–
CCCN1CCN(c2ncc3c(n2)CCN(Cc2ccc(Br)s2)C3)CC1 [Compound 4, 6-((5-bromothiophen-2-yl)methyl)-2-(4-propylpiperazin-1-yl)-5,6,7,8-tetrahydropyrido[4,3-d]pyrimidine]	312 ± 79 µM	Hit	23 ± 1.6 µM	–	–	–	–
CCCN1CCN(c2ncc3c(n2)CCN(Cc2cccc(Br)c2)C3)CC1 [Compound 5, 6-(3-bromobenzyl)-2-(4-propylpiperazin-1-yl)-5,6,7,8-tetrahydropyrido[4,3-d]pyrimidine]	287 ± 8 µM	Hit	21 µM	–	–	–	–
CCCN1CCN(c2ncc3c(n2)CCN(Cc2ccc(Br)cc2)C3)CC1 [Compound 6, 6-(4-bromobenzyl)-2-(4-propylpiperazin-1-yl)-5,6,7,8-tetrahydropyrido[4,3-d]pyrimidine]	628 ± 35 µM	Hit	13.6 ± 1.2 µM	–	–	–	–
CCOc1ccc(CN2CCc3nc(N4CCN(CC)CC4)ncc3C2)cc1OCC [Compound 7, 6-(3,4-diethoxybenzyl)-2-(4-ethylpiperazin-1-yl)-5,6,7,8-tetrahydropyrido[4,3-d]pyrimidine]	176 ± 9 µM	No	2.8 ± 0.3 µM	–	–	–	–
CCN1CCN(c2ncc3c(n2)CCN(Cc2cc(OC)c(OC)cc2OC)C3)CC1 [Compound 8, 2-(4-ethylpiperazin-1-yl)-6-(2,4,5-trimethoxybenzyl)-5,6,7,8-tetrahydropyrido[4,3-d]pyrimidine]	120 ± 5.2 µM	No	2.4 ± 0.1 µM	–	–	–	–
CCN1CCN(c2ncc3c(n2)CCN(Cc2ccc(OC)c(OC)c2OC)C3)CC1 [Compound 9, 2-(4-ethylpiperazin-1-yl)-6-(2,3,4-trimethoxybenzyl)-5,6,7,8-tetrahydropyrido[4,3-d]pyrimidine]	196 ± 0.1 µM	No	1.7 ± 0.1 µM	–	–	–	–
CCN1CCN(c2ncc3c(n2)CCN(Cc2ccccc2Cl)C3)CC1 [Compound 10, 6-(2-chlorobenzyl)-2-(4-ethylpiperazin-1-yl)-5,6,7,8-tetrahydropyrido[4,3-d]pyrimidine]	86 ± 16 µM	Hit	1.5 ± 0.01 µM	not observed	indicates binding	Synergy	significant shift in thermostability
CCN1CCN(c2ncc3c(n2)CCN(Cc2cc(OC)c(OC)c(OC)c2)C3)CC1 [Compound 11, 2-(4-ethylpiperazin-1-yl)-6-(3,4,5-trimethoxybenzyl)-5,6,7,8-tetrahydropyrido[4,3-d]pyrimidine]	556 ± 38 µM	No	2.5 ± 0.8 µM	–	–	–	–
CCOc1ccc(CN2CCc3nc(N4CCN(CC)CC4)ncc3C2)cc1OC [Compound 12, 6-(4-ethoxy-3-methoxybenzyl)-2-(4-ethylpiperazin-1-yl)-5,6,7,8-tetrahydropyrido[4,3-d]pyrimidine]	305 ± 13 µM	No	3.5 ± 0.5 µM	–	–	–	–
CCCN1CCN(c2ncc3c(n2)CCN(Cc2ccc(OCC)c(OC)c2)C3)CC1 [Compound 13, 6-(4-ethoxy-3-methoxybenzyl)-2-(4-propylpiperazin-1-yl)-5,6,7,8-tetrahydropyrido[4,3-d]pyrimidine]	664 ± 103 µM	No	44.8 ± 0.2 µM	–	–	–	–
C=CCn1c(C(=O)NCc2ccccn2)cc2sc(C)cc21 [Compound 14, 4-allyl-2-methyl-N-(pyridin-2-ylmethyl)-4H-thieno[3,2-b]pyrrole-5-carboxamide]	87 ± 2 µM	–	5.6 ± 0.3 µM	not observed	indicates binding	Synergy	significant shift in thermostability
CCCN1CCN(c2ncc3c(n2)CCN(Cc2cc(Br)cs2)C3)CC1 [Compound 15, 6-((4-bromothiophen-2-yl)methyl)-2-(4-propylpiperazin-1-yl)-5,6,7,8-tetrahydropyrido[4,3-d]pyrimidine]	–	Hit	–	–	–	–	–
CCN1CCN(c2ncc3c(n2)CCN(Cc2ccc(F)cc2F)C3)CC1 [Compound 16, 6-(2,4-difluorobenzyl)-2-(4-ethylpiperazin-1-yl)-5,6,7,8-tetrahydropyrido[4,3-d]pyrimidine]	–	No	–	–	–	–	–
CCN1CCN(c2ncc3c(n2)CCN(Cc2cccc(OC)c2OC)C3)CC1 [Compound 17, 6-(2,3-dimethoxybenzyl)-2-(4-ethylpiperazin-1-yl)-5,6,7,8-tetrahydropyrido[4,3-d]pyrimidine]	–	No	–	–	–	–	–
CCN1CCN(c2ncc3c(n2)CCN(Cc2cc(Br)cs2)C3)CC1 [Compound 18, 6-((4-bromothiophen-2-yl)methyl)-2-(4-ethylpiperazin-1-yl)-5,6,7,8-tetrahydropyrido[4,3-d]pyrimidine]	–	Hit	–	–	–	–	–
CCN1CCN(c2ncc3c(n2)CCN(Cc2ccc(OC(C)C)c(OC)c2)C3)CC1 [Compound 19, 2-(4-ethylpiperazin-1-yl)-6-(4-isopropoxy-3-methoxybenzyl)-5,6,7,8-tetrahydropyrido[4,3-d]pyrimidine]	–	No	–	–	–	–	–
CCOc1cccc(CN2CCc3nc(N4CCN(CC)CC4)ncc3C2)c1 [Compound 20, 6-(3-ethoxybenzyl)-2-(4-ethylpiperazin-1-yl)-5,6,7,8-tetrahydropyrido[4,3-d]pyrimidine]	–	No	–	–	–	–	–
